33 compounds from a melting point compilation (Tetko et al.; mined from patent text by program, amines drawn as free bases though some values may be those of a salt) can be followed below.

Compound `O=c1c2ccc(O)cc2oc2c1oc1c3ccccc3ccc21` registered a melting point of more than 300 °C.

The compound `O=C1NCc2c1cc1ccc3c(c1c2-c1ccc(Br)cc1)OCO3` registered a melting point of 273 to 274 °C.

The compound `Cc1cccc(N(CC(=O)OC(C)(C)C)C(=O)CN2C(=O)c3ccccc3C2=O)c1` registered a melting point of 166 °C.

In the case of `CC(=O)OC1C(C)OC(OC(=N)C(Cl)(Cl)Cl)C(OC(C)=O)C1OC(C)=O` (stereo not drawn), the melting point was in the range of 60 to 63 °C.

`Cc1ccc(CC(CS)C(=O)Nc2cccc(C(=O)O)c2)cc1` (stereo not drawn) had a melting point of 188 to 190 °C.

As to `Nc1nccc2occc12`, the melting point was 122 to 124 °C.

Compound `O=C(O)COc1ccc2c(c1)CCc1sc(SCCC(c3ccccc3)c3ccccc3)nc1-2` displayed a melting point of 138 to 140 °C.

The compound `CCN(CC)Cc1cc(Nc2ccnc3cc(Cl)ccc23)c2c(c1O)CCCC2` returned a melting point of 215 to 217 °C.

With `CCCc1c2nc(C(=O)O)cc(Cl)c2cc2c(=O)cc(C(=O)O)oc12`, the melting point was in the range of 336 to 338 °C.

The compound `COC(=O)c1ccc(CC(C)NCC(O)c2ccc(O)c(CO)c2)cc1C` (stereo not drawn) displayed a melting point of 82 to 85 °C.

The compound `CS(=O)(=O)N(Cc1ccc(Cl)cc1)CC(O)(Cn1cncn1)c1ccc(Cl)cc1Cl` (stereo not drawn) displayed a melting point of 121 to 122 °C.

With `CCCc1c(SCCCOc2ccc(C(C)O)c(OCCCC(=O)O)c2CCC)ccc(C(C)=O)c1O` (stereo not drawn), the melting point lay within 85 to 86 °C.

`O=C(c1c(F)cccc1F)N1CS(=O)CN(c2ccc(Cl)cc2)C1=O` (stereo not drawn) gave a melting point of 220 °C.

`Cc1c(NC(=O)c2ccc(OCC3CCOC3)cc2)ccc2cc(CNCC(C)(C)C)cnc12` (stereo not drawn) yielded a melting point of 129 °C.

On to `CCCOc1ccn2nc(-c3ccccc3)c(-c3ccc(=O)n(C(C)C)n3)c2c1`, for which the melting point amounted to 162 °C.

`CCn1c(Cl)c(C=O)c(=O)n(CC)c1=NO` showed a melting point of 115 to 116 °C.

With `CCOC(=O)N1CCN(c2c(F)cc([N+](=O)[O-])c(F)c2COC)CC1`, the melting point is 85 to 86 °C.

Compound `CCOc1cc(OCCCc2cn(-c3ccc(C(F)(F)F)cn3)nc2OCC)ccc1CCC(=O)O` came in with a melting point of 96 to 97 °C.

`CCC(=O)C1=CCC(c2c(C)c(C)c3c(c2Cl)CC(C)(C)C3)CC1=O` (stereo not drawn) came in with a melting point of 74 to 75 °C.

`Cn1c(-c2ccc(OC3CCN(C4CCC4)CC3)cc2)nc2ncccc2c1=O` registered a melting point of 146 to 150 °C.

Compound `CC(C)(C)OC(=O)NCc1ccc(Nc2ncc(Br)cc2[N+](=O)[O-])cc1` had a melting point of 178 to 180 °C.

For `CCN1c2ncccc2C(=O)Nc2c(C)cc(NCCCO)nc21`, the melting point is 222 to 224 °C.

In turn, `CC(C)c1cc2c(cc1CCSCC(=O)O)OCO2` registered a melting point of 75.5 to 76 °C.

`O=C(O)c1cnn(O)c1` displayed a melting point of 230 °C.

For `CCc1ccc2c(-c3cnc4[nH]cc(C(=O)N[C@H](C)C(=O)N5CC(C#N)C5)c4n3)nn(C)c2c1`, the melting point lay in the range of 185 to 190 °C.

For the compound `CN(C)c1ccccc1CC(=O)N1C[C@H]2[C@@H](C1)C(c1ccccc1)(c1ccccc1)CC[C@@H]2O`, the melting point came out at 160 °C.

`COc1ccc2ccc(N3C(=O)c4ccccc4C3CC(=O)CCC(C)C)nc2n1` (stereo not drawn): the melting point was determined as 150 °C.

Compound `O=C1N(Cc2ccc(Br)cn2)c2ccccc2C12COc1cc3c(cc12)OCCO3` (stereo not drawn) gave a melting point of 201 to 202 °C.

Compound `CCc1nnc(NC(=O)C2c3ccccc3Oc3ccccc32)o1` showed a melting point of 256 to 257 °C.

The compound `CN(C)C1CCN(c2ccc(NC(=O)n3ccc4cc(Oc5cc(CC(N)=O)ncn5)ccc43)cc2C(F)(F)F)C1` (stereo not drawn) registered a melting point of 182 to 184 °C.

The compound `CCOC(=O)C(C)c1ccc(O)c(NC(C)=O)c1` (stereo not drawn) displayed a melting point of 137 to 141 °C.

Regarding `COc1cc(Nc2c(C#N)cnc3cc(-c4csc(C5OCCO5)c4)ccc23)c(Cl)cc1Cl`, the melting point fell in the range of 234 to 236 °C.

As for `O=C/C=C/c1c(-c2ccc(F)cc2)n(CCc2ccccc2)c(=O)c2ccccc12`, the melting point was in the range of 133 to 134 °C.

As usually defined, the melting point is the temperature, or range, at which the solid turns liquid.
